From US20200207835A1, “SRCP1-BASED THERAPY FOR DISEASES ASSOCIATED WITH PROTEIN AGGREGATION” (THE MEDICAL COLLEGE OF WISCONSIN, INC., priority 2017, published 2020) come the findings set out here.

Positions count from the first letter of the chain named. Numbers in names are those of the source. Read-outs that look alike come from different tables or passages of the source. Residues, ends and D or L forms follow the SMILES beside them. No end group written: not given here. *: point of attachment. Cbz = O=C(OCc1ccccc1)*

One series concerns ^GFPHtt^ex1Q74. As to the kind of experiment: GFPHttex1Q74 aggregation in transfected HEK293 cells (fluorescent/confocal microscopy, western blot, filter trap assay). In kind it is cell-based, human. The conditions noted are these: for ability of SRCP1 mutant to suppress GFPHttex1Q74 aggregation: HEK293, 48 hours post-transfection, western blot and fluorescent microscopy; for ability of SRCP1 point mutant to suppress GFPHttex1Q74 aggregation: HEK293, fluorescence microscopy. As for the experimental part:
Transfections were performed with Lipofectamine 2000 (Invitrogen by ThermoFisher Scientific) and adapted from the manufacturer's instructions. Briefly, cells were plated on either 12-well or 6-well plates and transfected at 50-70% confluency. For 12-well transfections, 0.833 μg of DNA per well was mixed with 50 μl of OptiMEM (Gibco by Life Technologies) media and incubated for 5 minutes at room temperature. Lipofectamine 2000 in a 2:1, μl of lipofectamine: μg DNA ratio was mixed with 50 μl of OptiMEM media and incubated for 5 minutes at room temperature. DNA and Lipofectamine were mixed and incubated for 15 minutes at room temperature. Fresh media was added to cells prior to the addition of DNA and lipofectamine. For 6-well transfections, the same protocol is followed except that 1.25 μg of DNA per well and 100 μl of OptiMEM for dilution was used. Media was changed 24 hours post-transfection and cells were harvested 48 hours post-transfection. Prior to harvesting, HEK293 cells were washed three times with ice-cold 1×PBS. Samples were then lysed with either 150 μl of ice-cold NETN (with protease inhibitor) or 1× Laemmli Buffer and sonicated twice for 5-8 seconds.
For proteasome inhibition, 30 hours post-transfection cells would be replenished with DMEM containing either DMSO or 10 μM MG132 (Sigma-Aldrich) for 18 hours. Prior to harvesting, HEK293 cells were washed three times with ice-cold 1×PBS and imaged by fluorescent microscopy with a 20× objective using the Evos FL Auto Imaging System. Cells were then lysed with either 150 μl of ice-cold NETN (with protease inhibitor) or 1× Laemmli Buffer and sonicated twice for 5-8 seconds.
For autophagy inhibition, 24 hours post-transfection cells would be replenished with DMEM and treated with either DMSO or 5 mM 3-Methyladenine (Sigma-Aldrich) for an additional 24 hours. Prior to harvesting, HEK293 cells were washed three times with ice-cold 1×PBS and imaged by fluorescent microscopy with a 20× objective using the Evos FL Auto Imaging System. Cells were then lysed with either 150 μl of ice-cold NETN (with protease inhibitor) or 1× Laemmli Buffer and sonicated twice for 5-8 seconds.
For HEK293s′, slides were prepared by placing coverslips in 6-well plates and incubating with poly-L-lysine hydrobromide (Sigma-Aldrich) for an hour at room temperature. Coverslips were rinsed with 1×PBS three times prior to plating HEK293 cells. HEK293 cells were then transfected and fixed by incubation in 4% paraformaldehyde for 20 minutes at room temperature. Coverslips were mounted with ProLong Gold Antifade reagent and imaged with a 20× objective using the Evos FL Auto Imaging System or with a 40× objective using the Leica TCS SP5 Confocal Microscope System. For confocal, Z-stack images were obtained at […] intervals at 1024×1024 pixel resolution and merged using Fiji.
(§1) Following sonication, lysates were subjected to BCA protein assay (ThermoFisher Scientific) and prepared for loading by the addition of 4× laemmli buffer and boiling for four minutes. Samples then loaded on SDS-polyacrylamide gels, ran at 175 V, and transferred onto an Immuno-blot PVDF membrane (Biorad) overnight at 30 V. Membranes were blocked in 5% milk in TBS with 0.1% Tween (TBST) and incubated in primary antibody overnight at 4° C. Following primary, membranes were washed for 10 minutes at room temperature three times with TBST and incubated in secondary for an hour at room temperature. Membranes were then washed for 10 minutes at room temperature three times with TBST and then incubated in buffer for enhanced chemiluminescence (50 mM Na2HPO4; 50 mM Na2CO3; 10 mM NaBO3.4H2O; 250 mM luminol; 90 mM coumaric acid).
For HEK293 lysates, BCA protein assay was used to determine protein concentration. […]

In the next series the test system is ^GFPHtt^ex1Q103. It counts as cell-based, Dictyostelium discoideum. The conditions noted are these: Dictyostelium. The protocol:
For proteasome inhibition, 5×10^6 cells were incubated with either DMSO or 100 μM MG132 (Sigma-Aldrich) for 18 hours. Following treatment, cells were imaged and/or harvested by spinning at 500 g at room temperature for 5 minutes. Cell pellets were washed three times with 1×PBS and lysed with ice-cold NETN (with protease inhibitor). Lysates were then sonicated twice for 10-15 seconds. To verify inhibition, samples were run on SDS-PAGE and analyzed by western blot for ubiquitin.
For Hsp70 inhibition, 1×10^7 cells were incubated either with DMSO or 80 μM VER155008 (ApexBio) for 24 hours. Following treatments, cells were imaged and/or harvested by spinning at 500 g at room temperature for 5 minutes. Cell pellets were washed three times with 1×PBS and lysed with ice-cold NETN (with protease inhibitor). Lysates were then sonicated twice for 10-15 seconds. To verify inhibition, samples were run on SDS-PAGE and analyzed by western blot for ATG8.
For Dictyostelium cells, 1×10^7 cells were washed three times with ice-cold starvation buffer and then imaged with a 20× objective using the Evos FL Auto Imaging System.

The subject of another series is ubiquitinated species. The experiment in a line: Western blot for ubiquitin after proteasome inhibition in Dictyostelium. In kind it is cell-based, Dictyostelium discoideum. The settings on record: increasing concentrations of MG132, 18 hours. The protocol:
Following treatment, cells were imaged and/or harvested by spinning at 500 g at room temperature for 5 minutes. Cell pellets were washed three times with 1×PBS and lysed with ice-cold NETN (with protease inhibitor). Lysates were then sonicated twice for 10-15 seconds. To verify inhibition, samples were run on SDS-PAGE and analyzed by western blot for ubiquitin.
as §1
For orientation: Immunoblotting shows a protein as a band on a membrane.

For the next series, the system named is ATG8. The conditions noted are these: 150 mM NH4Cl, 8 hours.
The target in a further series is T1, Htt^Q46 (Homo sapiens, UniProt P42858, INS38QQQQQQQQQQQQQQQQQQQQQQQQQ).
T1 construct: Huntingtin exon-1 with 46 glutamines (Htt^Q46) in pET-32 was obtained from Addgene; pET-32 fusion tag (N, cleaved yes); host or cells: E. coli BL21
The experiment in a line: Thioflavin-T in vitro HttQ46 aggregation assay. In kind it is biochemical. The conditions noted are these: 3:1 peptide to HttQ46. The protocol:
Huntingtin exon-1 with 46 glutamines (Htt^Q46) in pET-32 was obtained from Addgene. Htt^Q46 was grown in BL21 cells at 37° C. to an optical density of 0.6 and induced with IPTG at 1 mM overnight at 16° C. After induction cells were spun down at 7,000 rpm for 5 minutes and resuspended in resuspension buffer (15 mM Tris-HCl buffer, pH 8.0). For lysis, lysozyme was added and cells were incubated at 4° C. for 45 minutes. To obtain soluble fraction, lysates were spun down at 12,000 rpm for 10 minutes, after which supernatant was added to 3 ml of Ni-beads (GoldBio) per 100 ml of lysate and tumbled for 4 hours at 4° C. Beads were then washed three times with resuspension buffer and then washed three more times with wash buffer (50 mM Tris-HCl pH 8.0, 150 mM NaCl, 1 mM PMSF, 1 mM EDTA). Protein was then eluted off beads by tumbling overnight at 4° C. in 25 mL of wash buffer with 250 mM imidazole.
Aggregation assays were performed as previously described in Kakkar, V. et al. Briefly, 15 μM Htt^46Q was mixed with 90 μM SRCP1 peptide (GenScript) (1:6, 1:3, 1:1.5) and 10 μM Thioflavin-T (Sigma-Aldrich). All samples were prepared on ice in buffer containing 20 mM Tris-HCl pH 8.0, 50 mM NaCl, 2 mM CaCl2). […] Fluorescence was measured with the excitation at 440 nm and emission at 480 nm, every 5 minutes using a Tecan Plate reader.

Series [1] in a line: Solubility of SRCP1 peptide in vitro. In kind it is physicochemical. The settings on record: data not shown.
[2] abbreviates: HEK293, 5 mM 3-MA for 24 hours, without SRCP1.
Setting [3] is: HEK293, 10 μM MG132 for 18 hours, absence of RFPSRCP1.

T1 sequence (P42858 with tags, fused parts or gaps with the stated changes): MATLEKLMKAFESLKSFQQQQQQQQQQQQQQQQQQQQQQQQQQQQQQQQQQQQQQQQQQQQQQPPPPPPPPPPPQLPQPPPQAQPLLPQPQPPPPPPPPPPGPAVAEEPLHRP
Protocol for ATG8: For autophagy inhibition, 1×10^7 cells were incubated either with vehicle or 150 μM NH4Cl (Sigma-Aldrich) for 8 hours. Following treatments, cells were imaged by fluorescent microscopy and plated on coverslips at a density of 2×10^6 cells per ml and allowing cells to adhere. Cells were then washed three times with 1×PBS and fixed with 100% ice-cold methanol at −20° C. for 10 minutes. Methanol was aspirated and cells were washed twice with 1×PBT (0.1% Triton X, 0.5% BSA in 1×PBS), incubated in blocking buffer (1% Triton X, 2% BSA in 1×PBT) for 30 minutes at room temperature, and put in primary Rb anti ATG8a (courtesy of Jason King, University of Sheffield) (1:5000) overnight at 4° C. Following primary cells were washed three times with 1×PBT and incubated in secondary goat anti rabbit (Jackson ImmunoResearch Laboratories; 711-166-152) for 2 hours at room temperature. Following secondary, cells were washed an additional three times with 1×PBT and mounted on slides with ProLong Gold Antifade reagent (Invitrogen by ThermoFisher Scientific). Slides were imaged with a Nikon eclipse 90i confocal microscope.

Consider `Cn1cnc(N)c2ncnc1-2` [3-MA, 3-Methyladenine, reference compound], for which, in the series on ^GFPHtt^ex1Q74 (setting [2]), the “aggregated GFPHttex1Q74” value is “significant increase in soluble and aggregated”; the “soluble GFPHttex1Q74” value was “significant increase in soluble and aggregated”.
On to `CC(C)C[C@@H](C=O)NC(=O)[C@H](CC(C)C)NC(=O)[C@H](CC(C)C)NC(=O)OCc1ccccc1` [MG132, reference compound] (Cbz-Leu-Leu-Leu-aldehyde), for which, in the series with ^GFPHtt^ex1Q103 (100 μM MG132, 18 hours), the “accumulation of aggregated GFPHttex1Q103” value is “does not result in an accumulation of aggregated”. The “accumulation of ubiquitinated species” value with ubiquitinated species is “leads to an accumulation of ubiquitinated species”. In addition, in the series on ^GFPHtt^ex1Q74 (setting [3]), the “insoluble GFPHttex1Q74” value was “increased in both the insoluble and soluble fraction”; the “soluble GFPHttex1Q74” value is “increased in both the insoluble and soluble fraction”.
For `Cl.N` [NH4Cl], in the series with ^GFPHtt^ex1Q103 (150 mM NH4Cl, 8 hours), the “accumulation of aggregated GFPHttex1Q103” value is given as “does not lead to accumulation of aggregated”. Further, the ATG8 puncta result in the series with ATG8 is reported as “leads to an accumulation of large ATG8 puncta”.
With “LIWGVYGFIR [SEQ ID NO:5, peptide of SRCP1 amino acids 61-70]”, the “HttQ46 aggregation in vitro, individual domain peptides” value in the series with Htt^Q46 is reported as “sufficient to suppress Htt^Q46 aggregation in vitro”.
Consider LIWGVYGFIRGGVGLVKWRG [SEQ ID NO:9], for which the solubility in vitro result in series [1] is on record as “remained soluble in vitro”.
Consider “VI-A: SRCP1 61-70 peptide with amino acids V65 and I69 mutated to alanine (LIWGAYGFAR)”, for which, in the series with Htt^Q46, the “HttQ46 aggregation in vitro, individual domain peptides” value is reported as “loss in activity”.

B1: ^RFPSRCP1^71-80A: SRCP1 with amino acids 71-80 mutated to alanine (protein)
chain: MTILSTFTSFSNPPKLNKSSFSSSTGSSLSMGSNSFAWGGGWGGFGGPKGGSFNVDIAGNLIWGVYGFIRAAAAAAAAAALQKGCKQP
modifications: left off: large carriers
notes: SRCP1 with amino acids 71-80 mutated to alanine
Take B1: the “ability of SRCP1 mutant to suppress GFPHttex1Q74 aggregation” value (from here on “ability of SRCP1 mutant”) with ^GFPHtt^ex1Q74 is “retained full activity”.

B2: ^RFPSRCP1^ST1: SRCP1 with all N-terminal serine and threonine residues mutated to alanine (protein)
chain: MAILAAFAAFANPPKLNKAAFAAAAGAALAMGANAFAWGGGWGGFGGPKGGSFNVDIAGNLIWGVYGFIRGGVGLVKWRGLQKGCKQP
modifications: left off: large carriers
notes: SRCP1 with all N-terminal serine and threonine residues mutated to alanine
In the case of B2, the “ability of SRCP1 mutant” value in the series on ^GFPHtt^ex1Q74 was “did not disrupt SRCP1's ability to suppress polyQ aggregation”.

B3: ^RFPSRCP1^61-70A: SRCP1 with amino acids 61-70 mutated to alanine (protein)
chain: MTILSTFTSFSNPPKLNKSSFSSSTGSSLSMGSNSFAWGGGWGGFGGPKGGSFNVDIAGNAAAAAAAAAAGGVGLVKWRGLQKGCKQP
modifications: left off: large carriers
notes: SRCP1 with amino acids 61-70 mutated to alanine
Regarding B3, the “ability of SRCP1 mutant” value with ^GFPHtt^ex1Q74 is recorded as “lost the ability to suppress”.

B4: ^RFPSRCP1^V65A: SRCP1 point mutant, V65 mutated to alanine (protein)
chain: B3 chain with A61L, A62I, A63W, A64G, A66Y, A67G, A68F, A69I, A70R
modifications: left off: large carriers
notes: SRCP1 point mutant, V65 mutated to alanine
Turning to B4, the “ability of SRCP1 point mutant to suppress GFPHttex1Q74 aggregation” value in the series on ^GFPHtt^ex1Q74 is on record as “resulted in a decrease in SRCP1 function”.

B5: ^RFPSRCP1^I69A: SRCP1 point mutant, I69 mutated to alanine (protein)
chain: B3 chain with A61L, A62I, A63W, A64G, A65V, A66Y, A67G, A68F, A70R
modifications: left off: large carriers
notes: SRCP1 point mutant, I69 mutated to alanine
For the molecule B5, in the series on ^GFPHtt^ex1Q74, the “ability of SRCP1 point mutant to suppress GFPHttex1Q74 aggregation” value is recorded as “resulted in a decrease in SRCP1 function”.
